Experimental data reported in patent US20160242414A1, “SAFENED HERBICIDAL COMPOSITIONS CONTAINING HALAUXIFEN OR 4-AMINO-3-CHLORO-5-FLUORO-6-(4-CHLORO-2-FLUORO-3-METHOXYPHENYL) PYRIDINE-2-CARBOXYLIC ACID AND METHODS OF USE THEREOF IN TURF” (Dow AgroSciences LLC, priority 2015, published 2016).

Assays:
[1] = tested on: perennial ryegrass (LOLPE); assay: Postemergence turf injury field trial, perennial ryegrass, with Activator 90 adjuvant
Method: (§1) For the ryegrass and tall fescue experiments, research trials were conducted in Indiana at the William H Daniel Turfgrass Research center in West Lafayette, Ind. on well established 10 year old stands of perennial ryegrass and tall fescue that were maintained as a home lawn with regular fertilization, irrigation and a 7.5 cm mowing height. To begin the trial, the research areas were sub-divided into 3 replications of 2.3 m^2 plots in a completely randomized block design for each grass species and spray mixtures were prepared just prior to the treatment by mixing the formulations with water.
Herbicide treatments were applied to ryegrass and tall fescue turfgrass plots in spray applications that included the spray adjuvant Activator 90 at 0.25% (v/v). The plots were treated with a hand held CO2 backpack sprayer equipped with a 3 liter bottle that delivered 804 liters/ha of spray to each plot using a flat fan nozzle. No irrigation, rainfall or mowing occurred until 24 hours after the application. The temperature at the time of the application was 24° C. and the wind speed averaged 4.8 km/hr. There was no cloud cover during the application and the soil was moist. Visual evaluations were made of turf injury for each plot on a 0%-100% scale where 0%=no injury and 100%=death at 0, 7, 14, 28 and 42 days after the application.
The following equation was used to calculate the expected activity of mixtures containing two active ingredients, A and B:
Expected=A+B−(A×B/100) • A=observed efficacy of active ingredient A at the same concentration as used in the mixture; • B=observed efficacy of active ingredient B at the same concentration as used in the mixture.

tall fescue (FESAR) = assay: Postemergence turf injury field trial, tall fescue, with Activator 90 adjuvant; conditions: 28 days after application
Method: as §1
Herbicide treatments were applied to ryegrass and tall fescue turfgrass plots in spray applications that included the spray adjuvant Activator 90 at 0.25% (v/v). The plots were treated with a hand held CO2 backpack sprayer equipped with a 3 liter bottle that delivered 804 liters/ha of spray to each plot using a flat fan nozzle. No irrigation, rainfall or mowing occurred until 24 hours after the application. The temperature at the time of the application was 24° C. and the wind speed averaged 4.8 km/hr. There was no cloud cover during the application and the soil was moist. Visual evaluations were made of turf injury for each plot on a 0%-100% scale where 0%=no injury and 100%=death at 0, 7, 14, 28 and 42 days after the application. […]

For `CNC.O=C(O)COc1ccc(Cl)cc1Cl` [2,4-D DMA, 2,4-D dimethyl ammonium], the “Observed Injury” value ([1]; 28 days after application, 2,4-D DMA 840 g ae/ha) was 3%, the “Observed Injury” value ([1]; 28 days after application, 2,4-D DMA 1120 g ae/ha) was 7% and the “Observed Injury” value ([1]; 28 days after application, 2,4-D DMA 1680 g ae/ha) was 0%. The “Observed Injury” value ([1]; 28 days after application, 2,4-D DMA 2520 g ae/ha) was 10%, the “Observed Injury” value ([1]; 42 days after application, 2,4-D DMA 840 g ae/ha) was 0% and the “Observed Injury” value ([1]; 42 days after application, 2,4-D DMA 1120 g ae/ha) was 0%. For the same molecule, the “Observed Injury” value ([1]; 42 days after application, 2,4-D DMA 1680 g ae/ha) was 0% and the “Observed Injury” value ([1]; 42 days after application, 2,4-D DMA 2520 g ae/ha) was 0%.
In the case of `CNC.COc1c(Cl)ccc(Cl)c1C(=O)O` [Dicamba DMA, dicamba dimethyl ammonium], the “Observed Injury” value ([1]; 28 days after application, dicamba DMA 280 g ae/ha) is reported as 7% and the “Observed Injury” value (tall fescue (FESAR); dicamba DMA 280 g ae/ha) is reported as 0%.
With `COC(=O)c1nc(-c2ccc(Cl)c(OC)c2F)cc(N)c1Cl` [Halauxifen-Methyl, halauxifen-methyl] the “Observed Injury” value ([1]; 28 days after application, halauxifen-methyl 15 g ae/ha, 0%=no injury, 100%=death) was 23%, the “Observed Injury” value ([1]; 28 days after application, halauxifen-methyl 30 g ae/ha) was 33% and the “Observed Injury” value ([1]; 28 days after application, halauxifen-methyl 45 g ae/ha) was 40%. For the same molecule, the “Observed Injury” value ([1]; 42 days after application, halauxifen-methyl 15 g ae/ha) was 8%, the “Observed Injury” value ([1]; 42 days after application, halauxifen-methyl 30 g ae/ha) was 12% and the “Observed Injury” value ([1]; 42 days after application, halauxifen-methyl 45 g ae/ha) was 35%. The “Observed Injury” value (tall fescue (FESAR); halauxifen-methyl 30 g ae/ha) was 32%.
